Data as given in patent US11969428B2, “Methods and pharmaceutical compositions for treating lymphoid malignancy” (priority 2011, dated 2024).

Columns and labels:
Test in all cases: Ambit KinomeScan screening
Assay type in all cases: binding
Settings in all cases: CAL-130 10 μM
PIK3CG = target: T1, PIK3CG (Homo sapiens, UniProt P48736)
T1 construct: unspecified tag; purchased Ambit (KinomeScan screening panel)
In short: (§1)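 Single-concentration profiling (10 μM CAL-130) measured displacement of tagged kinases from an immobilized bait ligand. Percent-of-control binding was reported; smaller values denote stronger interaction.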

AMPK-α2 = target: T2, AMPK-α2 (Homo sapiens, UniProt P54646)
T2 construct: purchased Ambit (KinomeScan screening)
In short: as §1

MAP3K1 = target: T3, MAP3K1 (Homo sapiens, UniProt Q13233)
T3 construct: Ambit (KinomeScan screening)
In short: as §1

MLCK = target: T4, MLCK (Homo sapiens, UniProt Q32MK0)
T4 construct: unspecified tag ('tagged kinases'); purchased Ambit (KinomeScan screening)
In short: as §1

FLT1 = target: T5, FLT1 (Homo sapiens, UniProt P17948)
T5 construct: unspecified tag; purchased Ambit (KinomeScan screening service)
In short: as §1

MST1R = target: T6, MST1R (Homo sapiens, UniProt Q04912)
T6 construct: unspecified tag ('tagged kinases'); purchased Ambit (KinomeScan screening)
In short: as §1

DAPK1 = target: T7, DAPK1 (Homo sapiens, UniProt P53355)
T7 construct: purchased Ambit (KinomeScan screening service)
In short: as §1

PHKG1 = target: T8, PHKG1 (Homo sapiens, UniProt Q16816)
T8 construct: unspecified tag ('tagged kinases'); purchased Ambit (KinomeScan screening)
In short: as §1

MST4 = target: T9, MST4 (Homo sapiens, UniProt Q9P289)
T9 construct: unspecified tag; purchased Ambit (KinomeScan screening panel)
In short: as §1

TLK1 = target: T10, TLK1 (Homo sapiens, UniProt Q9UKI8)
T10 construct: unspecified tag (tagged kinase); purchased Ambit (KinomeScan screening)
In short: as §1

ERK4 = target: T11, ERK4 (Homo sapiens, UniProt P31152)
T11 construct: unspecified tag ("tagged kinases"); purchased Ambit (KinomeScan screening service)
In short: as §1

PRKCD = target: T12, PRKCD (Homo sapiens, UniProt Q05655)
T12 construct: purchased Ambit (KinomeScan screening service)
In short: as §1

EPHA5 = target: T13, EPHA5 (Homo sapiens, UniProt P54756)
T13 construct: purchased Ambit (KinomeScan screening service)
In short: as §1

STK16 = target: T14, STK16 (Homo sapiens, UniProt O75716)
T14 construct: purchased Ambit (KinomeScan screening service)
In short: as §1

BRK = target: T15, BRK (Homo sapiens, UniProt Q13882)
T15 construct: unspecified tag ("tagged kinases"); purchased Ambit (KinomeScan screening)
In short: as §1

CDC2L2 = target: T16, CDC2L2 (Homo sapiens, UniProt Q9UQ88)
T16 construct: purchased Ambit (KinomeScan screening)
In short: as §1

PKAC-α = target: T17, PKAC-α (Homo sapiens, UniProt P17612)
T17 construct: unspecified tag; purchased Ambit (KinomeScan screening panel)
In short: as §1

STK36 = target: T18, STK36 (Homo sapiens, UniProt Q9NRP7)
T18 construct: tag (kind not specified); purchased Ambit (KinomeScan screening service)
In short: as §1

MET = target: T19, MET (Homo sapiens, UniProt P08581)
T19 construct: purchased Ambit (KinomeScan screening)
In short: as §1

ALK = target: T20, ALK (Homo sapiens, UniProt Q9UM73)
T20 construct: purchased Ambit (KinomeScan screening)
In short: as §1

p38-α = target: T21, p38-α (Homo sapiens, UniProt Q16539)
T21 construct: purchased Ambit (KinomeScan screening service)
In short: as §1

CAMKK2 = target: T22, CAMKK2 (Homo sapiens, UniProt Q96RR4)
T22 construct: purchased Ambit (KinomeScan screening)
In short: as §1

ACVR1 = target: T23, ACVR1 (Homo sapiens, UniProt Q04771)
T23 construct: unspecified tag ("tagged kinases"); purchased Ambit (KinomeScan screening)
In short: as §1

TSSK1B = target: T24, TSSK1B (Homo sapiens, UniProt Q9BXA7)
T24 construct: tag, kind not specified; purchased Ambit (KinomeScan screening service)
In short: as §1

ERBB4 = target: T25, ERBB4 (Homo sapiens, UniProt Q15303)
T25 construct: unspecified tag ("tagged kinases"); purchased Ambit (KinomeScan screening service)
In short: as §1

CAMK2B = target: T26, CAMK2B (Homo sapiens, UniProt Q13554)
T26 construct: purchased Ambit (KinomeScan screening)
In short: as §1

NEK2 = target: T27, NEK2 (Homo sapiens, UniProt P51955)
T27 construct: unspecified tag; purchased Ambit (KinomeScan screening panel)
In short: as §1

PKAC-β = target: T28, PKAC-β (Homo sapiens, UniProt P22694)
T28 construct: unspecified tag; purchased Ambit (KinomeScan screening panel)
In short: as §1

PFTK1 = target: T29, PFTK1 (Homo sapiens, UniProt O94921)
T29 construct: unspecified tag ('tagged kinases'); purchased Ambit (KinomeScan screening)
In short: as §1

CDK7 = target: T30, CDK7 (Homo sapiens, UniProt P50613)
T30 construct: purchased Ambit (KinomeScan screening)
In short: as §1

SBK1 = target: T31, SBK1 (Homo sapiens, UniProt Q52WX2)
T31 construct: tag, kind not specified; purchased Ambit (KinomeScan screening service)
In short: as §1

IKK-[…] = target: T32, IKK-[…] (Homo sapiens, UniProt Q14164)
T32 construct: Ambit (KinomeScan screening)
In short: as §1

PIK4CB = target: T33, PIK4CB (Homo sapiens, UniProt Q9UBF8)
T33 construct: unspecified tag; purchased Ambit (KinomeScan screening panel)
In short: as §1

PRP4 = target: T34, PRP4 (Homo sapiens, UniProt Q13523)
T34 construct: tag (kind not specified); purchased Ambit (KinomeScan screening service)
In short: as §1

ABL2 = target: T35, ABL2 (Homo sapiens, UniProt P42684)
T35 construct: unspecified tag ("tagged kinases"); purchased Ambit (KinomeScan screening)
In short: as §1

KIT = target: T36, KIT (Homo sapiens, UniProt P10721)
T36 construct: purchased Ambit (KinomeScan screening)
In short: as §1

TGFBR2 = target: T37, TGFBR2 (Homo sapiens, UniProt P37173)
T37 construct: unspecified tag (tagged kinase); purchased Ambit (KinomeScan screening)
In short: as §1

T1 sequence (P48736 whole entry): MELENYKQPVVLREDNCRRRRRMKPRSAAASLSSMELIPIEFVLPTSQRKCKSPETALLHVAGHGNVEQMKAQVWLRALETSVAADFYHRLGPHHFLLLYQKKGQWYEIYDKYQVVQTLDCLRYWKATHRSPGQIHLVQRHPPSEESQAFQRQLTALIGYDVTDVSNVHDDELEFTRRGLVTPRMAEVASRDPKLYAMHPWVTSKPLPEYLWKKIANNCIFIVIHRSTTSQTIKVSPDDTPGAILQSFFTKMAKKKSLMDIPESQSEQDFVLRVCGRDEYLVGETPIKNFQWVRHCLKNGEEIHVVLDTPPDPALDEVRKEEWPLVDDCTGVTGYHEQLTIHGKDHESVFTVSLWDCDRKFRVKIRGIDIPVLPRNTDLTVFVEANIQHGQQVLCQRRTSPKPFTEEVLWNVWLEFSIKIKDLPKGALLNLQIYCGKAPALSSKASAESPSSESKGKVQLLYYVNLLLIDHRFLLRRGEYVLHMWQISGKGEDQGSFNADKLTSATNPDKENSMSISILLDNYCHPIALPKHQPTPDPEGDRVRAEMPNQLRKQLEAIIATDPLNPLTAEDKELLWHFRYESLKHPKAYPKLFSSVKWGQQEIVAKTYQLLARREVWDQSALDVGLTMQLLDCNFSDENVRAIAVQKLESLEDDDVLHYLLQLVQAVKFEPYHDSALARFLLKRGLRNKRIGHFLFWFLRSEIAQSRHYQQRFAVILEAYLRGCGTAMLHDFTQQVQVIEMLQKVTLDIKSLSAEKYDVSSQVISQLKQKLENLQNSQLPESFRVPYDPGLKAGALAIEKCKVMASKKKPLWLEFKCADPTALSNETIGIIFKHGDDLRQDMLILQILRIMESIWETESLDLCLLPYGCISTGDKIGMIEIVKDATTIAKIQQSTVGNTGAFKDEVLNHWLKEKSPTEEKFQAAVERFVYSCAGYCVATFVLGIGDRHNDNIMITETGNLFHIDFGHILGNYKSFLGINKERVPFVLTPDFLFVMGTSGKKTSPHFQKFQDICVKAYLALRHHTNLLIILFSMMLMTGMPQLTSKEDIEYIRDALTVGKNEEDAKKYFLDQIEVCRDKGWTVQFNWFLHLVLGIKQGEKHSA
T26 sequence (Q13554 whole entry): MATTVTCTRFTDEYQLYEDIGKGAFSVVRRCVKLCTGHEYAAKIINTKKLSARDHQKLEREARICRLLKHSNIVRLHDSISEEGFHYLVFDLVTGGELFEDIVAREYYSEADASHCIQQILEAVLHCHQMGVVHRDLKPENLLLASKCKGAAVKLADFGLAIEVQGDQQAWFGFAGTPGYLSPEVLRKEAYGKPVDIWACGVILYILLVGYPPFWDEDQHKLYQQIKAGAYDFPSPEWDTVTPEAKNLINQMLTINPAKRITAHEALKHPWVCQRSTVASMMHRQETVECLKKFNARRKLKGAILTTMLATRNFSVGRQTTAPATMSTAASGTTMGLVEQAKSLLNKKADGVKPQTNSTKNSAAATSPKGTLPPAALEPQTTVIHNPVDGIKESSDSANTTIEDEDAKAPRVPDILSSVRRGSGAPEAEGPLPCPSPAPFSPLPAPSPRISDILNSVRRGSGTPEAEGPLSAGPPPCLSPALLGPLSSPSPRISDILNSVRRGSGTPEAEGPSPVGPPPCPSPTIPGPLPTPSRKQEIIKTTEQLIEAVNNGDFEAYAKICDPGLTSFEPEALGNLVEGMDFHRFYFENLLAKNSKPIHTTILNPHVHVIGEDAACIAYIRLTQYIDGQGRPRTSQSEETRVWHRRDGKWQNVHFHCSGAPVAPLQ
T27 sequence (P51955 whole entry): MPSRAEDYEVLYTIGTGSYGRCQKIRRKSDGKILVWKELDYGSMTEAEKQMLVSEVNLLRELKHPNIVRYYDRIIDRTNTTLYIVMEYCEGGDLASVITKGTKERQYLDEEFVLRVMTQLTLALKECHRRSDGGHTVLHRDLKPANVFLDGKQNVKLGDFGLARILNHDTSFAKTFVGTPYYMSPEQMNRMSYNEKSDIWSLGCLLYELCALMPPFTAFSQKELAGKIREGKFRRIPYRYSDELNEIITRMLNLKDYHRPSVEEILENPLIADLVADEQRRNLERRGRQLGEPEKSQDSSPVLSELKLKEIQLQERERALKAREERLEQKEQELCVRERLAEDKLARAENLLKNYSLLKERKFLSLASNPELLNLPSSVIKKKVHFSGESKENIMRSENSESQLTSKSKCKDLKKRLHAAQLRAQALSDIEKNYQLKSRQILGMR
T7 sequence (P53355 whole entry): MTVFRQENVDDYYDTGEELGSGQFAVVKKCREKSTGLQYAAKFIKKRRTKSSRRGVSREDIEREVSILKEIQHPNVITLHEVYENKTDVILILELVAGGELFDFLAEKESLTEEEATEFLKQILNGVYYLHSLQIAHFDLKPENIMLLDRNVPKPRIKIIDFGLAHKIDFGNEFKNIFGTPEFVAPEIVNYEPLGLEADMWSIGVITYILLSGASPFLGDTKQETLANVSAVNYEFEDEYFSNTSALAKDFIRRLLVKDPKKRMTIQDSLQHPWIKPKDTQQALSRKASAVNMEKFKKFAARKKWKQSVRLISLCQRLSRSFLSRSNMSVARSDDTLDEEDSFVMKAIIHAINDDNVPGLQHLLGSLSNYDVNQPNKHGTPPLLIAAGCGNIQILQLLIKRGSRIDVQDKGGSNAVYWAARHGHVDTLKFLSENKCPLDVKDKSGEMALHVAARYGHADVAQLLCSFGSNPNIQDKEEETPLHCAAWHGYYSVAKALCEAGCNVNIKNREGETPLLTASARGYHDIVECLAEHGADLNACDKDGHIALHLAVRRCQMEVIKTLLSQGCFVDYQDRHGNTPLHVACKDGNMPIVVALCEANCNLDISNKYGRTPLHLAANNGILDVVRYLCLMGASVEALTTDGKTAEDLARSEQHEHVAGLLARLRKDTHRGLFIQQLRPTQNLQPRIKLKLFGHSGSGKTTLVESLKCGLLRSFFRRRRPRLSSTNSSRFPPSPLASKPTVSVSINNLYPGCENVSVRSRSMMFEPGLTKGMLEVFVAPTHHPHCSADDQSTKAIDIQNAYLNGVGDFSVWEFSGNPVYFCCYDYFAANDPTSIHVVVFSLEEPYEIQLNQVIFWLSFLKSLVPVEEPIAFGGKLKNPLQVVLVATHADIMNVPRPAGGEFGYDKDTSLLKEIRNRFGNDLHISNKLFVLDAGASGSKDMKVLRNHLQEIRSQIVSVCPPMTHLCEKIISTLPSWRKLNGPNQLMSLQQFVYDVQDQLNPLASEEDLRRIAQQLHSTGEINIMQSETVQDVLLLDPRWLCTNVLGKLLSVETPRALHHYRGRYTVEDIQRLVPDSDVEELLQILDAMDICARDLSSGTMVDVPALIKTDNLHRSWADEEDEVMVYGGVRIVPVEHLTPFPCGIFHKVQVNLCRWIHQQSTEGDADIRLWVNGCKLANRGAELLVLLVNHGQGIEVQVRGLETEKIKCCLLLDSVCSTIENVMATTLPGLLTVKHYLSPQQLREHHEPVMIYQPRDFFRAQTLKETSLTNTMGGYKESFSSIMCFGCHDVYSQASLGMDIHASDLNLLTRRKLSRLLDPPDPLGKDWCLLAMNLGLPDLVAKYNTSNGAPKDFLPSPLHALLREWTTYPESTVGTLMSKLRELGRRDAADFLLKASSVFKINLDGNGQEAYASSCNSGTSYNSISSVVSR
T32 sequence (Q14164 whole entry): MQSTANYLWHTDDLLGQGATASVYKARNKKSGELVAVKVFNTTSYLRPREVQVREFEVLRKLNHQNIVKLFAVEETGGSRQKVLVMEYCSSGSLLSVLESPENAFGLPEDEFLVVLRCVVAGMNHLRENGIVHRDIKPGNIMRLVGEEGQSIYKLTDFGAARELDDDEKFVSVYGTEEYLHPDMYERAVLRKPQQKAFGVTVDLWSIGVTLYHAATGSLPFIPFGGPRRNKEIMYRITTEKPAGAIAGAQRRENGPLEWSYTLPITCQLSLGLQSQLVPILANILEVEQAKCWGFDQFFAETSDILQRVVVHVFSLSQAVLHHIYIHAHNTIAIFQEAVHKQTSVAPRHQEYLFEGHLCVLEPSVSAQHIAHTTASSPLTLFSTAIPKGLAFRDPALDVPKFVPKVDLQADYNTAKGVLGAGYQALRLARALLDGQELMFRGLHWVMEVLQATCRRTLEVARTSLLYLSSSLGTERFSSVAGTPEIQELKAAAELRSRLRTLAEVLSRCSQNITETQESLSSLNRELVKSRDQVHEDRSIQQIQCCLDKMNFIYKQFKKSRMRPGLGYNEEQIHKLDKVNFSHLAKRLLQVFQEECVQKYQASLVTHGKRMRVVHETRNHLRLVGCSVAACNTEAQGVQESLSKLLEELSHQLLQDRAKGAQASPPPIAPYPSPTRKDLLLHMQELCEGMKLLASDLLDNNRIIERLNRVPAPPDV
T23 sequence (Q04771 21-509): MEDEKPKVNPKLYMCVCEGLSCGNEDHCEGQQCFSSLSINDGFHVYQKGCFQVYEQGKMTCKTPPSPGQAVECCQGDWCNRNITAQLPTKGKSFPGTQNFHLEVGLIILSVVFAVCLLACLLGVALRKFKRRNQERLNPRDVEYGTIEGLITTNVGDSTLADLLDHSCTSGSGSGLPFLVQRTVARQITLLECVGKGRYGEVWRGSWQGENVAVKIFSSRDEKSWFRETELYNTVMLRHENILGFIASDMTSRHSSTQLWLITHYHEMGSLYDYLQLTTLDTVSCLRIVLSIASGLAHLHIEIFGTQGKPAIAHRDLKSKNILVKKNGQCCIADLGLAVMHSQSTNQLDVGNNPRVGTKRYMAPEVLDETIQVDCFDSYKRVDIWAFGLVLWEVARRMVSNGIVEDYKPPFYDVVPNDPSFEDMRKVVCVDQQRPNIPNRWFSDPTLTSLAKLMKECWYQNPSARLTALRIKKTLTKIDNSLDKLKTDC

Question: For `Cc1ccccc1-n1c(C(C)Nc2nc(N)nc3nc[nH]c23)nc2cccc(C)c2c1=O` (centres unmarked) [CAL-130], which “Percent of Control Binding” value (PIK3CG; PI3KCG (Table 2)) is on record?
Answer: 1.2%

Question: And the “Percent of Control Binding” value (PIK3CG; PIK3CG / PI3Kγ (Table 1))?
Answer: 10%

Question: And the “Percent of Control Binding” value (AMPK-α2)?
Answer: 100%

Question: And the “Percent of Control Binding” value (MAP3K1)?
Answer: 100%

Question: What about the “Percent of Control Binding” value (MLCK) of the same compound?
Answer: 100%

Question: And the “Percent of Control Binding” value (FLT1)?
Answer: 100%

Question: What about the “Percent of Control Binding” value (MST1R) of the same compound?
Answer: 100%

Question: And the “Percent of Control Binding” value (DAPK1)?
Answer: 100%

Question: And the “Percent of Control Binding” value (PHKG1)?
Answer: 100%

Question: And the “Percent of Control Binding” value (MST4)?
Answer: 100%

Question: And the “Percent of Control Binding” value (TLK1)?
Answer: 100%

Question: What about the “Percent of Control Binding” value (ERK4) of the same compound?
Answer: 100%

Question: What about the “Percent of Control Binding” value (PRKCD) of the same compound?
Answer: 100%

Question: What about the “Percent of Control Binding” value (EPHA5) of the same compound?
Answer: 100%

Question: What about the “Percent of Control Binding” value (STK16) of the same compound?
Answer: 100%

Question: What about the “Percent of Control Binding” value (BRK) of the same compound?
Answer: 100%

Question: And the “Percent of Control Binding” value (CDC2L2)?
Answer: 100%

Question: What about the “Percent of Control Binding” value (PKAC-α) of the same compound?
Answer: 100%

Question: What about the “Percent of Control Binding” value (STK36) of the same compound?
Answer: 100%

Question: What about the “Percent of Control Binding” value (MET) of the same compound?
Answer: 100%

Question: What about the “Percent of Control Binding” value (ALK) of the same compound?
Answer: 100%

Question: And the “Percent of Control Binding” value (p38-α)?
Answer: 100%

Question: And the “Percent of Control Binding” value (CAMKK2)?
Answer: 18%

Question: What about the “Percent of Control Binding” value (ACVR1) of the same compound?
Answer: 100%

Question: And the “Percent of Control Binding” value (TSSK1B)?
Answer: 100%

Question: What about the “Percent of Control Binding” value (ERBB4) of the same compound?
Answer: 100%

Question: What about the “Percent of Control Binding” value (CAMK2B) of the same compound?
Answer: 100%

Question: What about the “Percent of Control Binding” value (NEK2) of the same compound?
Answer: 100%

Question: And the “Percent of Control Binding” value (PKAC-β)?
Answer: 100%

Question: What about the “Percent of Control Binding” value (PFTK1) of the same compound?
Answer: 100%

Question: What about the “Percent of Control Binding” value (CDK7) of the same compound?
Answer: 100%

Question: And the “Percent of Control Binding” value (SBK1)?
Answer: 100%

Question: And the “Percent of Control Binding” value (IKK-[…])?
Answer: 100%

Question: What about the “Percent of Control Binding” value (PIK4CB) of the same compound?
Answer: 100%

Question: What about the “Percent of Control Binding” value (PRP4) of the same compound?
Answer: 100%

Question: And the “Percent of Control Binding” value (ABL2)?
Answer: 100%

Question: What about the “Percent of Control Binding” value (KIT) of the same compound?
Answer: 100%

Question: What about the “Percent of Control Binding” value (TGFBR2) of the same compound?
Answer: 100%
